According to patent US12364738B2, “Composition comprising at least one enzyme and at least one microbicidal molecule for the prevention or treatment of post-implant infections” (ONELIFE S.A., priority 2016, dated 2025):
Where two headings read alike, the source gives them in different places. Marks after values point to notes of the source that are not given here.

What was measured:
[1] = cited from earlier work
[2] = tested on: isolate 10, P. aeroginosa strain DIV5508 (central venous catheter), biofilm; details: static model, 24 h biofilm, 24 h treatment, ciprofloxacin 0.15 to 40 mg/L
Procedure: (§1) The measurement was conventionally carried out by absorption photometry (measurement at 590 nm with the Spectramax M4 equipment).
(§2) From each of the isolates given in table 1, biofilms (n=4) were developed over 24 hours at a temperature of 37° C. in the wells of a 96-well plate containing 200 μL of a TSB culture medium (Tryptic Soy Broth VWR) supplemented with 1% glucose and 2% sodium chloride.
(§3) Before proceeding with the measurement of the viability of the bacterial cells with resazurin, the plates containing the developed biofilms were washed with a PBS buffer (pH=7.4) then incubated with resazurin (0.01 mg/L) for 1 hour in the dark.

[3] = tested on: isolate 1, S. aureus isolated from a pacemaker, biofilm; details: dynamic model, 48 h biofilm on PEG protrusions, 24 h treatment, agitation 120 RPM
Procedure: (§4) In order to judge the effectiveness of a post-implantation treatment carried out with a composition according to the invention, the viability of the bacteria was measured by following the development of the colour of the resazurin (7-Hydroxy-3H-phenoxazin-3-on 10-oxide), this colour changing according to the redox potential which depends on microbial activity. The measurement was conventionally carried out by absorption photometry (measurement at 590 nm with the Spectramax M4 equipment).
(§5) Before proceeding with the measurement of the viability of the bacterial cells with resazurin, the PEG plates with the protrusions containing the developed biofilms were incubated with resazurin for 2 hours in the dark.

[4] = tested on: isolate 8, E. faecalis strain 9781 (urinary catheter), biofilm; details: static model, 24 h biofilm, 24 h treatment, ciprofloxacin 0.15 to 40 mg/L
Procedure: as §1, §2, §3

[5] = tested on: isolate 3, S. aureus MRSA strain 80124474762 (knee screw), biofilm; details: static model, 24 h biofilm, 24 h treatment, ciprofloxacin 0.15 to 40 mg/L
Procedure: as §1, §2, §3

[6] = tested on: isolate 1, S. aureus MRSA strain 80124430375 (pacemaker), biofilm; details: static model, 24 h biofilm, 24 h treatment, ciprofloxacin 0.15 to 40 mg/L
Procedure: as §1, §2, §3

[7] = tested on: isolate 11, P. aeroginosa strain 04/190 (urinary catheter), biofilm; details: static model, 24 h biofilm, 24 h treatment, ciprofloxacin 0.15 to 40 mg/L
Procedure: as §1, §2, §3

[8] = tested on: isolate 1, S. aureus isolated from a pacemaker, biofilm; experiment: Confocal microscopic images with LIVE/DEAD staining, isolate 1; type: cell-based; details: 24 h biofilm, 24 h treatment, ciprofloxacin 1 mg/L, FIGS. 4 and 5
Procedure: For isolate 1 (S. aureus isolated from a pacemaker on which a biofilm developed in the human body after implantation), confocal images were taken and correspond to FIGS. 3 to 5.
Before obtaining the different images, staining was carried out with the LIVE/DEAD kit (Invitrogen) for 30 minutes before rinsing with a PBS buffer.

[9] = tested on: isolate 9, E. faecalis strain 9555 (urinary catheter), biofilm; details: static model, 24 h biofilm, 24 h treatment, ciprofloxacin 0.15 to 40 mg/L
Procedure: as §1, §2, §3

[10] = tested on: isolate 5, E. coli isolated from a urinary catheter, biofilm; details: dynamic model, 48 h biofilm on PEG protrusions, 24 h treatment, agitation 120 RPM
Procedure: as §4, §5

[11] = tested on: isolate 4, S. epidermis strain 80224420266 (central venous catheter), biofilm; details: static model, 24 h biofilm, 24 h treatment, ciprofloxacin 0.15 to 40 mg/L
Procedure: as §1, §2, §3

[12] = tested on: isolate 7, E. faecalis strain 9794 (urinary catheter), biofilm; details: static model, 24 h biofilm, 24 h treatment, ciprofloxacin 0.15 to 40 mg/L
Procedure: as §1, §2, §3

[13] = tested on: isolate 2, S. aureus MRSA strain 80224422456 (knee prosthesis), biofilm; details: static model, 24 h biofilm, 24 h treatment, ciprofloxacin 0.15 to 40 mg/L
Procedure: as §1, §2, §3

[14] = tested on: isolate 6, E. coli strain 5701 (orthopaedic implant), biofilm; details: static model, 24 h biofilm, 24 h treatment, ciprofloxacin 0.15 to 40 mg/L
Procedure: as §1, §2, §3

[15] = tested on: isolate 5, E. coli strain 6081 (urinary catheter), biofilm; details: static model, 24 h biofilm, 24 h treatment, ciprofloxacin 0.15 to 40 mg/L
Procedure: as §1, §2, §3

[16] = serum, after administration of the antibiotic, based on EUCAST, used as test concentration

NCC[C@H](O)C(=O)N[C@@H]1C[C@H](N)[C@@H](O[C@H]2O[C@H](CN)[C@@H](O)[C@H](O)[C@H]2O)[C@H](O)[C@H]1O[C@H]1O[C@H](CO)[C@@H](O)[C@H](N)[C@H]1O [amikacin]
Cmin, minimum serum concentration ([1]; in vivo): 5000 ng/mL
Cmax, maximum serum concentration after administration of the antibiotic [1, 16]: 24000 ng/mL

COc1c(N2C[C@@H]3CCCN[C@@H]3C2)c(F)cc2c(=O)c(C(=O)O)cn(C3CC3)c12 [moxifloxacin]
Cmax, maximum serum concentration after administration of the antibiotic [1, 16]: 3600 ng/mL
Cmin, minimum serum concentration [1, 16]: 300 ng/mL

O=C(O)c1cn(C2CC2)c2cc(N3CCNCC3)c(F)cc2c1=O [solution A, ciprofloxacin]
Concentration of the antibiotic molecule in a solution comprising the antibiotic alone (solution A) to reduce the viability of the bacteria by 50% (EC50) [2]: >40 µg/mL
Concentration of the antibiotic molecule in a solution comprising the antibiotic alone (solution A) to reduce the viability of the bacteria by 50% (EC50) [3]: 0.7 µg/mL
Concentration of the antibiotic molecule in a solution comprising the antibiotic alone (solution A) to reduce the viability of the bacteria by 50% (EC50) [4]: >40 µg/mL
Concentration of the antibiotic molecule in a solution comprising the antibiotic alone (solution A) to reduce the viability of the bacteria by 50% (EC50) [5]: 1.2 µg/mL
Cmin, minimum serum concentration [1, 16]: 600 ng/mL
Concentration of the antibiotic molecule in a solution comprising the antibiotic alone (solution A) to reduce the viability of the bacteria by 50% (EC50) [6]: >40^a mg/L
Concentration of the antibiotic molecule in a solution comprising the antibiotic alone (solution A) to reduce the viability of the bacteria by 50% (EC50) [7]: >40 µg/mL
live/dead state of the bacteria in confocal images [8]: numerous bacteria are still alive
Concentration of the antibiotic molecule in a solution comprising the antibiotic alone (solution A) to reduce the viability of the bacteria by 50% (EC50) [9]: >40 µg/mL
Concentration of the antibiotic molecule in a solution comprising the antibiotic alone (solution A) to reduce the viability of the bacteria by 50% (EC50) [10]: 3.18 µg/mL
Concentration of the antibiotic molecule in a solution comprising the antibiotic alone (solution A) to reduce the viability of the bacteria by 50% (EC50) [11]: 1.77 µg/mL
Concentration of the antibiotic molecule in a solution comprising the antibiotic alone (solution A) to reduce the viability of the bacteria by 50% (EC50) [12]: >40 µg/mL
Concentration of the antibiotic molecule in a solution comprising the antibiotic alone (solution A) to reduce the viability of the bacteria by 50% (EC50) [13]: 0.8 µg/mL
Concentration of the antibiotic molecule in a solution comprising the antibiotic alone (solution A) to reduce the viability of the bacteria by 50% (EC50) [14]: >40 µg/mL
Concentration of the antibiotic molecule in a solution comprising the antibiotic alone (solution A) to reduce the viability of the bacteria by 50% (EC50) [15]: 2.7 µg/mL

NC[C@H]1O[C@H](O[C@H]2[C@H](O)[C@@H](O[C@H]3O[C@H](CO)[C@@H](O)[C@H](N)[C@H]3O)[C@H](N)C[C@@H]2N)[C@H](N)C[C@@H]1O [tobramycin]
Cmin, minimum serum concentration ([1]; in vivo): 900 ng/mL
Cmax, maximum serum concentration after administration of the antibiotic [1, 16]: 4000 ng/mL

C[C@@H](O)[C@H]1C(=O)N2C(C(=O)O)=C(S[C@@H]3CN[C@H](C(=O)N(C)C)C3)[C@H](C)[C@H]12 [meropenem]
Cmin, minimum serum concentration ([1]; in vivo): 100 ng/mL
Cmax, maximum serum concentration after administration of the antibiotic [1, 16]: 20000 ng/mL
